According to patent US10047105B2, “Gyrase inhibitors” (Merck Sharp & Dohme Corp., priority 2009, dated 2018):
≈ marks a conversion by molar mass, not a printed value.

Columns and labels:
Type in all cases: cell-based
S. aureus ATCC 13709 = assay: MIC, antibacterial potency, S. aureus; details: S. aureus (SA); in µg/mL
S. pneumoniae ATCC 51916 = assay: MIC, S. pneumoniae; details: S. pneumoniae (Spn52); in µg/mL
E. coli 8 ATCC 25922 = assay: MIC, E. coli 8 (wt); details: E. coli 8 (EC8)

SMILES | MIC, SA (S. aureus ATCC 13709) | MIC Spn52 (S. pneumoniae ATCC 51916) | MIC EC8 (E. coli 8 ATCC 25922) [µg/mL]
CCc1[nH]c2nc(Sc3cnc4cccnc4c3)nc(N3CC4CC(C3)N(C(=O)OC(C)(C)C)C4)c2c1Cl (stereo not drawn) [701,132] | >64 | >64 | > 64
CCc1[nH]c2nc(Oc3cnc(C(N)=O)nc3)nc(N3CC4C(N)C4C3)c2c1Cl (stereo not drawn) [701,133] | 8 | 8 | > 64
CCc1[nH]c2nc(Sc3cnc4nccnc4c3)nc(N3CC4CNC(C4)C3)c2c1Cl (stereo not drawn) [701,137] | 2 | 4 | 64 (≈ 141 µM)
CCc1[nH]c2nc(Oc3cccnc3)nc(N3CC4C(N)C4C3)c2c1Cl (stereo not drawn) [701,140] | 4 | 8 | > 64
CCc1[nH]c2nc(Sc3cnc4cccnc4c3)nc(N3CC4C(N)C4C3)c2c1C (stereo not drawn) [701,143] | <=0.5 | 2 | 64 (≈ 153 µM)
CCc1[nH]c2nc(Sc3cnc4nccnc4c3)nc(N3C[C@@H]4[C@H](C3)[C@@]4(N)CO)c2c1Cl [701,144] | <=0.5 | 2 | 32 (≈ 68.2 µM)
CCc1[nH]c2nc(Sc3cnc4nccnc4c3)nc(N(CCN)CC(C)c3ccccc3)c2c1Cl (stereo not drawn) [701,147] | 32 | 64 | > 64
CCc1[nH]c2nc(Sc3cnc4nccnc4c3)nc(N(CCN)CC(C)C)c2c1Cl [701,148] | 64 | 64 | > 64
CCc1[nH]c2nc(Oc3cnc(C)nc3)nc(N3CC4C(N)C4C3)c2c1Cl (stereo not drawn) [701,151] | <=0.5 | 2 | 8 (≈ 20.7 µM)
CCc1[nH]c2nc(Sc3cccnc3)nc(Cl)c2c1C(F)F [701,153] | 64 | >64 | > 64
CCc1[nH]c2nc(Sc3cnc4cccnc4c3)nc(N3CC[C@@H](N)C3)c2c1C [701,161] | 4 | 16 | 64 (≈ 158 µM)
CCc1[nH]c2nc(Sc3cccnc3)nc(N3C[C@@H]4[C@@H](N)[C@@H]4C3)c2c1C(F)F [701,162] | 16 | 32 | > 32
CCc1[nH]c2nc(Oc3cncc(C(=O)OC)c3)nc(N3CC4C(N)C4C3)c2c1Cl (stereo not drawn) [701,163] | >64 | >64 | > 64
CCc1[nH]c2nc(Sc3cncc(S(=O)(=O)N(C)C)c3)nc(N3CC[C@@H](N)C3)c2c1Cl [701,180] | 16 | 32 | > 64
CCc1[nH]c2nc(Sc3cncc(S(=O)(=O)N(C)C)c3)nc(N3CC4C(N)C4C3)c2c1Cl (stereo not drawn) [701,181] | 2 | 8 | > 64
CCc1[nH]c2nc(Sc3cncc(S(=O)(=O)N(C)C)c3)nc(N3CC[C@@H](N)C3)c2c1C [701,182] | >64 | >64 | > 64
CCc1[nH]c2nc(Sc3cncc(S(=O)(=O)N(C)C)c3)nc(N3CC4C(N)C4C3)c2c1C (stereo not drawn) [701,183] | 16 | 64 | > 64

SMILES | MIC, SA (S. aureus ATCC 13709) | MIC Spn52 (S. pneumoniae ATCC 51916) | MIC EC8 (E. coli 8 ATCC 25922) [µg/mL]
CCc1[nH]c2nc(Sc3ccc4c(N5CC[C@@H](N)C5)cc(=O)oc4c3)nc(N3CC[C@@H](N)C3)c2c1Cl [701,184] | >64 | >64 | > 64
CCc1[nH]c2nc(Oc3cncnc3)nc(N3CC4C(N)C4C3)c2c1C (stereo not drawn) [701,193] | 8 | 32 | 64 (≈ 182 µM)
N[C@@H]1CCN(c2nc(Sc3cnc4cccnc4c3)nc3[nH]c(CC(F)(F)F)c(Cl)c23)C1 [701,209] | 2 | 4 | > 64
CCc1[nH]c2nc(Sc3ccc4cc5c([n+]([O-])c4c3)CCN(C(=O)CCCC[C@@H]3SC[C@@H]4NC(=O)N[C@@H]43)C5)nc(N3CC4C(C3)C4(N)C(N)=O)c2c1Cl (stereo partly drawn) [701,229] | 4 | 32 | > 64
CCc1[nH]c2nc(Oc3cncc(C(N)=O)c3)nc(C)c2c1Cl [701,231] | 2 | 4 | > 64
CCc1[nH]c2nc(Oc3ccc4nccnc4c3)nc(C)c2c1Cl [701,232] | 1 | 4 | > 64
CCc1[nH]c2nc(Oc3cncnc3)nc(Oc3ccc4nccnc4c3)c2c1C [701,233] | 1. | 8 | > 64
NC1C2CN(c3nc(Sc4cnc5ccc[n+]([O-])c5c4)nc4[nH]c(CC(F)(F)F)c(Cl)c34)CC12 (stereo not drawn) [701,236] | >64 | >64 | > 64
CCc1[nH]c2nc(N3CCN(c4cc(C(=O)OC)nc5ccc(Cl)cc45)CC3)ncc2c1Cl [701,237] | >64 | >64 | > 64
CCc1[nH]c2nc(Oc3ccc4nccnc4c3)ncc2c1Cl [701,238] | 4 | 32 | > 64
CCc1[nH]c2nc(Sc3cnc4ncn(C)c(=O)c4c3)nc(N3CC4C(N)C4C3)c2c1C (stereo not drawn) [701,239] | 2 | 16 | 64 (≈ 143 µM)
Cc1nc(Sc2cncc(C(N)=O)c2)nc2[nH]c(C(C)O)c(Cl)c12 (stereo not drawn) [701,240] | >64 | >64 | > 64
CCc1[nH]c2nc(Oc3cncnc3)nc(Oc3cnc(N)nc3)c2c1Cl [701,241] | 1 | 2 | > 64
CCc1[nH]c2nc(Oc3cncnc3)nc(Oc3cc(O)cc(C#N)c3)c2c1Br [701,249] | <=0.5 | <=0.5 | 8 (≈ 17.7 µM)
CCc1[nH]c2nc(Oc3cncnc3)nc(Oc3cc(N)cc(C#N)c3)c2c1Br [701,250] | <=0.5 | <=0.5 | > 64
CCc1[nH]c2nc(Oc3cncnc3)nc(Oc3cccc(CNC)c3)c2c1Cl [701,251] | 1 | 2 | > 64
